Measured values: patent US20050249743A1, “Isolated peptides which bind to HLA-A24 molecules and uses thereof” (priority 2004, published 2005)
Where no end group is shown, it is not given here.

How the values were obtained:
[1] = test system: HLA-A24+ Epstein Barr Virus-transformed B (EBV-B) cells; assay: chromium release assay, CTL 13 against peptide pulsed EBV-B cells; assay type: cell-based
Procedure: In this experiment, CTL 13 was tested for specific lytic activity in standard chromium release assays.
In the assay, the targets of CTL 13 were HLA-A24^+ Epstein Barr Virus-transformed B (EBV-B) cells. The EBV-B cells were cultured in IMDM supplemented with 10% fetal calf serum, 0.24 mM L-asparagine, 0.55 mM L-arginine, AAG, 100 U/ml penicillin and 100 μg/ml streptomycin. The EBV-B cells were labeled with ^51Cr for one hour according to standard methods and then incubated for 5 minutes with peptide NYKRCFPVI (SEQ ID NO: 1) (1 μg/ml). The ^51Cr labeled, peptide pulsed EBV-B cells (targets) were then combined with CTL 13 (effector) at effector-to-target ratios shown in FIG. 3A. Chromium release was measured after 4 hours.
In further experiments, the HLA-A24 EBV-B cells were labeled with ^51Cr for one hour according to standard methods and then incubated for 15 minutes with threefold dilutions of the synthetic peptide NYKRCFPVI (SEQ ID NO: 1). CTL 13 was subsequently added at an effector-to-target ratio of 10:1 and chromium release was measured after 4 hours. The concentration of peptide shown in FIG. 3B corresponds to the concentrations during the 4 hour incubation. […] This is in the range of concentration observed for the previously identified antigenic MAGE peptides, for which values ranging from 0.05 to 200 nM have been observed. […]

HLA-A2402 = target: T1, HLA-A2402 (Homo sapiens, UniProt P04439, D101N/D140Y/D185E/E176V/E190D/F33S/G103R/G107R/I119L/I121M/I306V/K335N/L105A/L180Q/L300P/N151K/N90K/Q86E/Q94H/R106L/R138H/R89G/T104I/T345S/V100E/W191G/Y123F); assay: in vitro folding of recombinant HLA-A2402 with beta2-microglobulin and peptide (tetramer production); assay type: binding; settings: recombinant HLA-A2402 folded in vitro with beta2-microglobulin and peptide
T1 construct: made in house; host or cells: E. coli
From the text: (§1) Recombinant HLA-A2402 molecules produced in E. coli were folded in vitro with beta2-microglobulin and peptide NYKRCFPVI (SEQ ID NO: 1) from MAGE-4, or peptide LYVDSLFFL (SEQ. ID NO: 2) from PRAME (control) (See Ikeda, et al., Immunity 6:199-208 (1997)), in accordance with Altman, et al., Science 274:94-96 (1996). The peptide of SEQ ID NO: 1 corresponds to amino acids 143-151 of MAGE-4. This specific peptide was selected because it is homologous to the peptide NYKHCFPEI (SEQ ID NO: 3), a MAGE-1 encoded peptide previously shown to be recognized by HLA-A24 restricted T cells. See Fujie, et al., Int. J. Cancer 80(2):169-172 (1999).
The HLA-peptide complexes were then purified by gel filtration, biotinylated and mixed as described in Altman, et al., supra with extraviden-phycoerythrin (PE) for the HLA-A24/MAGE-4 tetramer, or streptavidin-APC for the PRAME control tetramer. Both extravidin-PE and streptavidin-APC are commercially available. The tetramers were then used to label T cells, as described in the next example.

[2] = target: Recombinant HLA-A2402 molecules produced in E. coli, folded with beta2-microglobulin (human); assay: in vitro folding of recombinant HLA-A2402 with beta2-microglobulin and peptide
From the text: as §1, with “NYKRCFPVI” left out, “LYVDSLFFL” left out, “NYKHCFPEI” left out

binding result [2]	Molecule	EC50 ([1]; CTL 13, effector-to-target ratio 10:1, chromium release after 4 hours, read-out: peptide concentration giving half maximal lysis of peptide pulsed HLA-A24 target cells) [nM]	lysis of peptide pulsed target cells by CTL 13 ([1]; peptide 1 μg/ml, 5 minutes pulse, chromium release after 4 hours, unpulsed control targets not lysed)	formation of HLA-A2402/peptide complexes (HLA-A2402)
–	NYKRCFPVI [SEQ ID NO: 1, NYKRCFPVI]	8	lysed target cells pulsed with SEQ ID NO: 1 peptide	successful production of HLA-A2402 and SEQ ID NO: 1 peptide complexes
binds	NYKRCFPVI (Synthetic 9-mer; also called MAGE-4 antigenic peptide; MAGE-4.A24 peptide) [peptide NYKRCFPVI (SEQ ID NO: 1) from MAGE-4]	–	–	–
